This note sets out measurements from patent US20210040074A1 (The United States of America,as represented by the …, priority 2018, published 2021).

Test [1] has as its target T1, D5 (Homo sapiens, UniProt P21918). The experiment in a line: D5 cAMP assay. The settings on record: fold change of dopamine EC50, 50 μM compound.
Description: (§2) cAMP Accumulation Assay. Assays were performed on D1R-HEK293 (Codex Biosolutions, Gaithersburg, Md.) cells stably expressing the human D1R. HEK293 cell lines were maintained in Dulbecco's modified Eagles medium, supplemented with 10% fetal bovine serum, 100 U/ml penicillin, 100 μg/ml streptomycin, 1 mM sodium pyruvate, and 250 μg/ml G418 and incubated at 37° C., 5% CO2, and 90% humidity. […] After 18-24 h incubation at 37° C., 5% CO2, and 90% humidity, the media was removed and replaced with 5 μL/well PBS. […] Briefly, antibody and working solution was added to each well according to the manufacturer's protocol, and incubated in the dark at room temperature for 60 min. Following incubation, enzyme acceptor reagent was added to the plates and luminescence (RLU) was measured (FDSS μCell, Hamamatsu Photonics K. K., Bridgewater, N.J.) following a 3 h incubation in the dark at room temperature.
The target in test [2] is T1, D5. The experiment in a line: D5R β-arrestin recruitment assay (DiscoverX PathHunter, CHO cells). The class given is cell-based. Also noted: host or cells: CHO-K1. The settings on record: for D5 Beta-Arrestin: DA + 50 μM PAM, Fold Change EC50: fold change of dopamine EC50, 50 μM compound. As for the experimental part: (§1) β-arrestin Recruitment Assay. […] Following 18-24 h of incubation, the cells were treated with the indicated concentrations of compound in PBS buffer containing 0.2 mM sodium metabisulfite, and incubated at 37° C. for 90 min. DiscoverX reagent was added to cells according to the manufacturer's protocol, followed by a 60 min incubation in the dark at room temperature. Luminescence was measured on a Hamamatsu FDSS μ-Cell reader (Hamamatsu, Bridgewater, N.J.) and data were collected using the FDSS software.
Each PAM was also examined in the absence of DA as an agonist, as indicated.

In the next test the target is T2, D4R (Homo sapiens, UniProt P21917).
T2 sequence (P21917 1-419): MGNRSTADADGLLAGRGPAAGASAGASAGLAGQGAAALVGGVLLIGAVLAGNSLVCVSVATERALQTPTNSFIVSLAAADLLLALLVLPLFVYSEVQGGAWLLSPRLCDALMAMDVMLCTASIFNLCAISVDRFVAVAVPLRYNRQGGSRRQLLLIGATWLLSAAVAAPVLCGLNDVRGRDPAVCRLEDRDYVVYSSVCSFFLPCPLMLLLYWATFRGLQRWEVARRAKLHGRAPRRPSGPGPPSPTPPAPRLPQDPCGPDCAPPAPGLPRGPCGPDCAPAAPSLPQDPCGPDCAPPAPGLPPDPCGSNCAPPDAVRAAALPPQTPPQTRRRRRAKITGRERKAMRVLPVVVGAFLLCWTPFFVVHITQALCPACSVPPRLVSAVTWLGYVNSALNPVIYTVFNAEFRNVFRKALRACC
The experiment in a line: D4 β-arrestin recruitment assay (DiscoverX PathHunter, CHO-K1 cells). The class given is cell-based. Also noted: inferred from the same PathHunter system described for D1R and D5R; host or cells: CHO-K1. The settings on record: fold change of dopamine EC50, 50 μM compound. The procedure:
as §1, with “Assay. Agonist-mediated recruitment of β-arrestin-2 to all five DARs was determined using the DiscoveRx PathHunter complementation assay (DiscoverX Inc, Fremont, Calif.), as previously described (Free, et. al., 2014; Conroy, et. al., 2015).” for “Assay.”

Test [3] deals with T3, human D1R (Homo sapiens, UniProt P21728). As to the kind of experiment: D1 cAMP accumulation assay (D1R-HEK293 cells, DiscoverX HitHunter). The settings on record: fold change of dopamine EC50, 50 μM compound.
Description: as §2
The target of test [4] is T3, human D1R. As to the kind of experiment: D1R β-arrestin recruitment assay (DiscoverX PathHunter, CHO-K1 cells). The settings on record: fold change of dopamine EC50, 50 μM compound.
Excerpt: The DiscoverX PathHunter β-Arrestin Assay was used to measure β-arrestin reuitment to the D1R following the manufacturer's instructions.

T3 sequence (P21728 whole entry): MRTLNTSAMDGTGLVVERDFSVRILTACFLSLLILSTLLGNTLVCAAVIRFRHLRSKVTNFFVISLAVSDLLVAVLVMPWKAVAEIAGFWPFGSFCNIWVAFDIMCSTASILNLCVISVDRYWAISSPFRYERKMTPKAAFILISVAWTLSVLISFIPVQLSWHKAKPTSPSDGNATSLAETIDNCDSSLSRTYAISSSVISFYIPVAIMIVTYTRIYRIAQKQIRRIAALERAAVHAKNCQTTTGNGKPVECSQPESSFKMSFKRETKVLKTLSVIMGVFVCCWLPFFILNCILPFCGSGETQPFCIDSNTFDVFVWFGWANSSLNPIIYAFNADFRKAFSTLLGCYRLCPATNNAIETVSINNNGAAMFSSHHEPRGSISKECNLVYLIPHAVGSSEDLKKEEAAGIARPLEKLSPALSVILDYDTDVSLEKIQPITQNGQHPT
T1 sequence (P21918 whole entry): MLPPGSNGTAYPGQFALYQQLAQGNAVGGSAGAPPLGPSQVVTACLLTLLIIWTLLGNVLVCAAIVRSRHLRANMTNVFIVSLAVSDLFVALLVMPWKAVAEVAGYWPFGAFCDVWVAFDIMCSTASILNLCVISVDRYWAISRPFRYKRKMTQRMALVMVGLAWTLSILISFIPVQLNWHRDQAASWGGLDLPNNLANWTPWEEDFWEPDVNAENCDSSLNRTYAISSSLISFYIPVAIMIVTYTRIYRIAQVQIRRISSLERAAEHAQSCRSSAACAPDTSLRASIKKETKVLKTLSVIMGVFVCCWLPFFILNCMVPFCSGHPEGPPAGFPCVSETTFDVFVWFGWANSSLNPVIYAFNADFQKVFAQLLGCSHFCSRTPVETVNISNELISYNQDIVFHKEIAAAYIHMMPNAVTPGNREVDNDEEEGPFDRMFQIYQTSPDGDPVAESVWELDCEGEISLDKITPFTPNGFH

For the compound `Cc1ccc(-n2c(CC(C)C)nc3c(c(=O)c4ccccc4n3C)c2=O)cc1` [Compound 5], the “D5 cAMP: DA + 50 μM PAM, Fold Change EC50” value (“D5 cAMP … Fold Change EC50” below) on D5 [1] came out at 2.23. Further, at D5 [2] (50 μM compound), the “PAM activity at the D5 receptor” value is on record as “none of these analogs have PAM activity” and the “fold change of dopamine EC50 for β-arrestin recruitment to D5R” value came to 1.3 fold. The “D5 Beta-Arrestin: DA + 50 μM PAM, Fold Change EC50” value (“D5 Beta-Arrestin … Fold Change EC50” below) at D5 [2] was 1.32. Moreover, at D4R, the “D4 Beta-Arrestin: DA + 50 μM PAM, Fold Change EC50” value (“D4 Beta-Arrestin … Fold Change EC50” for short) worked out at 1.06.
As to `COc1ccc(-n2c(CC3CCCCC3)nc3c(c(=O)c4ccccc4n3C)c2=O)cc1` [Compound 16], on D5 [1], the “D5 cAMP … Fold Change EC50” value turned out to be 0.67. For the same compound, the “D5 Beta-Arrestin … Fold Change EC50” value at D5 [2] is given as 0.73. Moreover, the “D1 cAMP: DA + 50 μM PAM, Fold Chg EC50” value at human D1R [3] was 0.34. In addition, at human D1R [4], the “D1 Beta-Arrestin: DA + 50 μM PAM, Fold Chg EC50” value (from here on “D1 Beta-Arrestin … Fold Chg EC50”) is 0.45. Besides, the “D4 Beta-Arrestin … Fold Change EC50” value on D4R worked out at 1.45.
With `Cn1c2ccccc2c(=O)c2c(=O)n(-c3ccc(Cl)cc3)c(CC3CCCCC3)nc21` [Compound 17], the “D5 cAMP … Fold Change EC50” value on D5 [1] turned out to be 1.43. The “D5 Beta-Arrestin … Fold Change EC50” value on D5 [2] is on record as 1.09. Besides, the “D4 Beta-Arrestin … Fold Change EC50” value at D4R is 1.38.
`Cn1c2ccccc2c(=O)c2c(=O)n(-c3cccc(Cl)c3)c(CC3CCCCC3)nc21` [Compound 18]: on D5 [1], the “D5 cAMP … Fold Change EC50” value worked out at 0.34. For the same compound, the “D5 Beta-Arrestin … Fold Change EC50” value on D5 [2] was found to be 1.35. The “D4 Beta-Arrestin … Fold Change EC50” value on D4R stood at 1.57.
With `COc1ccc(-n2c(CC3CCCCC3)nc3c(c(=O)c4ccccc4n3C)c2=O)cc1Cl` [Compound 19], the “D5 cAMP … Fold Change EC50” value at D5 [1] is on record as 1.04. Further, the “D5 Beta-Arrestin … Fold Change EC50” value at D5 [2] stood at 1.29. The “D4 Beta-Arrestin … Fold Change EC50” value at D4R is 1.78.
Take `Cn1c2ccccc2c(=O)c2c(=O)n(-c3ccccc3)c(CC3CCCCC3)nc21` [Compound 20]: the “D5 cAMP … Fold Change EC50” value at D5 [1] was determined as 1.30. Besides, the “D5 Beta-Arrestin … Fold Change EC50” value on D5 [2] came out at 2.38. The “D4 Beta-Arrestin … Fold Change EC50” value at D4R is reported as 2.14.
The matching figures for `CC(C)Cc1nc2c(c(=O)c3ccccc3n2C)c(=O)n1-c1ccccc1` [Compound 21]: 2.22, 4.56 and 0.62.
In the case of `Cn1c2ccccc2c(=O)c2c(=O)n(-c3cccc(Cl)c3)c(CC3CCCCC3)nc21` [Compound 22], the “D5 cAMP … Fold Change EC50” value on D5 [1] turned out to be 0.73. For the same compound, at D5 [2], the “D5 Beta-Arrestin … Fold Change EC50” value was 1.40. Besides, the “D4 Beta-Arrestin … Fold Change EC50” value on D4R stood at 1.67.
Turning to `Cn1c2ccccc2c(=O)c2c(=O)n(-c3ccccc3)c(C3CC3)nc21` [Compound 23], on D5 [1], the “D5 cAMP … Fold Change EC50” value is reported as 0.57. In addition, at D5 [2], the “D5 Beta-Arrestin … Fold Change EC50” value came out at 2.58. For the same compound, at D4R, the “D4 Beta-Arrestin … Fold Change EC50” value turned out to be 1.32.
As to `Cn1c2ccccc2c(=O)c2c(=O)n(-c3ccccc3)c(C3CCCC3)nc21` [Compound 24], the “D5 cAMP … Fold Change EC50” value on D5 [1] was 1.26. Further, the “D5 Beta-Arrestin … Fold Change EC50” value at D5 [2] was determined as 4.16. Also, on D4R, the “D4 Beta-Arrestin … Fold Change EC50” value is listed as 1.26.
As for `CC(C)(C)C1CCc2c(sc(NC(=O)c3cccnc3)c2C(N)=O)C1` (stereo not shown) [Compound 38], the “D5 Beta-Arrestin … Fold Change EC50” value on D5 [2] is 0.78. For the same compound, the “D1 cAMP: DA + 50 μM PAM, Fold Chg EC50” value at human D1R [3] is 2.29. Besides, the “D1 Beta-Arrestin … Fold Chg EC50” value on human D1R [4] amounted to 10.35. Also, the “D4 Beta-Arrestin … Fold Change EC50” value at D4R is given as 2.26.
Consider `CCOC(=O)c1c(NC(=O)c2cccnc2)sc2c1CCC(C(C)(C)C)C2` (stereo not shown) [Compound 39], for which the “D5 Beta-Arrestin … Fold Change EC50” value at D5 [2] was determined as 0.65. Also, the “D1 cAMP: DA + 50 μM PAM, Fold Chg EC50” value on human D1R [3] was determined as 1.04. Further, the “D1 Beta-Arrestin … Fold Chg EC50” value at human D1R [4] was determined as 3.01. The “D4 Beta-Arrestin … Fold Change EC50” value on D4R is given as 2.03.
As for `NC(=O)c1c(NC(=O)c2cccnc2)sc2c1CCC(c1ccccc1)C2` (stereo not shown) [Compound 40], at D5 [2], the “D5 Beta-Arrestin … Fold Change EC50” value is on record as 0.48. In addition, the “D1 cAMP: DA + 50 μM PAM, Fold Chg EC50” value at human D1R [3] is reported as 0.7. For the same compound, the “D1 Beta-Arrestin … Fold Chg EC50” value at human D1R [4] is 1.97. Moreover, the “D4 Beta-Arrestin … Fold Change EC50” value on D4R is listed as 0.68.
